# Where a SMILES comes first, the peptide text is derived from it. The star is where a group is joined. Cbz = O=C(OCc1ccccc1)*
# Assays:
# [1] = system: proteasome activity in 2008 cells; experiment: Proteasome activity assay (commercially available kit) on cell lysates; format: cell-based, human; conditions: 48 h
# Description: FIG. 11. Inhibition of the proteasomal activity by MG132 results in increased ubiquitinated MDA-7 protein expression in CDDP-sensitive tumor cells but not in CDDP-resistant tumor cells. FIG. 11A, CDDP-resistant (2008/C*13 R) and sensitive (2008) ovarian tumor cells were plated in six-well plates and were treated with PBS, MG132, Ad-mda7, or Ad-mda7 plus MG132. At 48 h after treatment cells were harvested, lysates and supernatants prepared and subjected to MDA-7 and total ubiquitinated protein detection by western blotting and proteasome activity assay using commercially available kit. […] However, the MDA-7 protein was increased in 2008 cells when treated with MG132 plus Ad-mda7. […] FIG. 11B, CDDP-resistant (2008/C*13 R) and sensitive (2008) ovarian tumor cells were plated in six-well plates and were treated with PBS, MG132, Ad-p53, or Ad-p53 plus MG132. At 48 h after treatment cells were harvested, lysates and supernatants prepared and subjected to p53 protein detection by western blotting and proteasome activity using commercially available kit. […] However, the p53 protein was increased in 2008 cells when treated with MG132 plus Ad-p53.
# FIG. 20. SiRNA-mediated inhibition of Beta-5 subunit expression of the 20S proteasome in CDDP-sensitive tumor cells abrogates proteasome activity. CDDP-sensitive (2008) ovarian tumor cells were plated in six-well plates. […]
# [2] = system: total ubiquitinated proteins in 2008 cells; experiment: Western blotting of total ubiquitinated proteins; format: cell-based, human; conditions: 24 h
# Description: (§1) FIG. 9. CDDP-resistant tumor cells have more endogenous ubiquitinated proteins. CDDP-resistant (2008/C*13 R) and sensitive (2008) ovarian tumor cells were plated in six-well plates and were untreated or treated with MG132. Cells were harvested 24 h after treatment, total cell lysate prepared and subjected to western blotting. Membrane was probed with human anti-ubiquitinated antibody.
# as §1, with “CDDP-Resistant Tumor Cells Have More Endogenous Ubiquitinated Proteins.” for “FIG. 9. CDDP-resistant tumor cells have more endogenous ubiquitinated proteins.”, “antibody. […] (FIG. 9)” for “antibody.”
structure (smiles),measurement,setting,value
CC(C)C[C@@H](C=O)NC(=O)[C@H](CC(C)C)NC(=O)[C@H](CC(C)C)NC(=O)OCc1ccccc1 [MG132] (Cbz-Leu-Leu-Leu-aldehyde),inhibition of proteasome activity,[1]; FIG. 11A (Ad-mda7 experiment),60-65%
same,inhibition of proteasome activity,[1]; FIG. 11B (Ad-p53 experiment),60-65%
same,total ubiquitinated protein levels,[2],greatly increased

# — patent US20090004145A1, “COMPOSITIONS AND METHODS INVOLVING GENE THERAPY AND PROTEASOME MODULATION” (priority 2006, published 2009)
